Holding throughout (assay type): physicochemical
Series [1] in a line: Angle of repose (PE 2.9.36). The settings on record: mixing time 5 minutes. The method, then: (§1) A. Funnel Flow and Angle of Repose (PE 2.9.16-2.9.36)
(§2) The tests were performed on an Erweka® flow tester on all of the raw materials and mixtures tested using a standardized funnel. The tests performed on the raw materials were carried out on 100 g of powder, and on 20 g for mixtures (batches A, F, G, H, I, J).
Determination of the angle of repose was performed on the powders alone and on the mixtures, as defined in the European Pharmacopeia. Different mixing times of 5, 10 and 30 minutes were tested on the mixtures (batches of F to J) to determine the influence of the mixing time on the flow (Table IV).

A short description of series [2]: Tapped density (volumenometer, PE 2.9.34). The settings on record: after tamping; for Hausner ratio: criterion <1.20; for Carr index: criterion <20%. How it is done:
B. Tapped Density (PE 2.9.34)
The tests were performed on a volumenometer (Erweka® GmbH SVM12). The Carr and Hausner indices can be determined by this test. The tests performed on the raw materials were carried out on 100 g of powder, and on 20 g for mixtures (batches A, F, G, H, I, J).

Series [3] is described as follows: Funnel flow (Erweka flow tester, PE 2.9.16). To be noted: standardized funnel; 100 g raw materials, 20 g mixtures. How it is done:
as §1, §2

Series [4] in a line: Laser diffraction granulometry (dry mode, Mastersizer S). The method, then:
Laser Diffraction Granulometry (European Pharmacopeia (PE), Current Edition, 2.9.31)
Analysis of the granulometric distribution was performed in dry mode on a Mastersizer S laser granulometer (Malvern®). The detection range of this instrument in dry mode is from 0.05 μm to 900 μm. This study was performed on 20 g of active principle, at a pressure of 1, 2 and 3 bar. Each test was performed 3 times for each pressure.

The values below come from patent publication US10960015B2, “Effervescent formulation based on pyridoxal-5-phosphate” (Assistance Publique-Hopitaux De Paris, priority 2015, dated 2021).

On to `OC[C@@H](O)[C@@H](O)[C@H](O)[C@@H](O)CO` [Batch E, Sorbitol], for which, in series [1], the Angle of repose stood at 43.6° and the “Angle of repose, Interpretation” value was “Passable”. In addition, in series [2], the “Carr index, interpretation” value is given as “Excellent”; the “Compactibility (V10-V500)” value came to 9 mL; the “Hausner ratio, interpretation” value is on record as “Excellent”; the Hausner ratio was found to be 1.10. This compound returned a Carr index in series [2] of 9.05%. Also, the Flow in series [3] was found to be 9.6 s.
Take `OC[C@H]1O[C@@](CO)(O[C@H]2O[C@H](CO)[C@@H](O)[C@H](O)[C@H]2O)[C@@H](O)[C@@H]1O` [Batch D, Sucrose]: in series [1], the Angle of repose came to 40.5° and the “Angle of repose, Interpretation” value is “Quite”. In addition, in series [2], the “Carr index, interpretation” value is given as “Excellent”; the “Compactibility (V10-V500)” value was 3 mL; the “Hausner ratio, interpretation” value was “Excellent”; the Hausner ratio turned out to be 1.10. The Carr index in series [2] stood at 8.70%. Besides, in series [3], the Flow amounted to 22 s.
As for Isomalt [Batch C], in series [1], the Angle of repose came to 45° and the “Angle of repose, Interpretation” value is “Passable”. In series [2], the “Carr index, interpretation” value is “Good”; the “Compactibility (V10-V500)” value stood at 8 mL; the “Hausner ratio, interpretation” value is “Good”; the Hausner ratio was 1.13. Moreover, in series [2], the Carr index is 11.25%. Further, the Flow in series [3] turned out to be 23.8 s.
Regarding `OC[C@@H](O)[C@@H](O)[C@H](O)[C@H](O)CO` [Batch Q, Mannitol], in series [1], the Angle of repose is on record as 38.3° and the “Angle of repose, Interpretation” value is listed as “Quite”. Moreover, in series [2], the “Carr index, interpretation” value is “Excellent”; the “Compactibility (V10-V500)” value was 0 mL; the “Hausner ratio, interpretation” value is reported as “Excellent”; the Hausner ratio stood at 1.02. In addition, the Carr index in series [2] was 7.48%. In series [3], the Flow is reported as 27.1 s.
The compound `Cc1ncc(COP(=O)(O)O)c(C=O)c1O` [Batch A, Pyridoxal-5-phosphate] registered a d50 in series [4] (dry mode) of 11 μm. For the same compound, the particle size entry in series [4] (dry mode, 1, 2 and 3 bar) was “below 100 μm”. Also, the Flow result in series [3] is reported as “no flow”.
